Experimental data published in the NIST ThermoML archive (doi:10.1016/j.tca.2015.02.020).

Assay: molar heat capacity at constant pressure; xn = mol fraction of the nth substance listed
Conditions: 101 kPa, Liquid, Small sample (50 mg) DSC

NCCCO [3-amino-1-propanol] + O
Conditions | molar heat capacity at constant pressure [J/K/mol]
207.56 K, x1 = 0.16 | 73.85
207.57 K, x1 = 0.26 | 81.82
208.04 K, x1 = 0.68 | 129.03
209.45 K, x1 = 0.19 | 75.33
209.97 K, x1 = 0.68 | 142.1
210.91 K, x1 = 0.19 | 78.22
211.07 K, x1 = 0.26 | 88.06
212.29 K, x1 = 0.16 | 75.21
212.29 K, x1 = 0.26 | 82.81
212.78 K, x1 = 0.68 | 130.16
213.28 K, x1 = 0.68 | 142.67
214.19 K, x1 = 0.19 | 76.49
214.23 K, x1 = 0.19 | 79.09
214.38 K, x1 = 0.26 | 89.05
217.03 K, x1 = 0.16 | 76.56
217.04 K, x1 = 0.26 | 84.12
217.51 K, x1 = 0.68 | 131.3
218.93 K, x1 = 0.19 | 78.22
220.86 K, x1 = 0.19 | 81.11
221.02 K, x1 = 0.26 | 90.36
221.77 K, x1 = 0.16 | 78.19
221.77 K, x1 = 0.26 | 85.11
222.25 K, x1 = 0.68 | 133
223.67 K, x1 = 0.19 | 79.95
224.18 K, x1 = 0.19 | 83.13
224.35 K, x1 = 0.26 | 91.35
226.51 K, x1 = 0.16 | 79.55
226.51 K, x1 = 0.26 | 86.42
226.99 K, x1 = 0.68 | 133.57
228.4 K, x1 = 0.19 | 81.39
230.81 K, x1 = 0.19 | 87.46
230.97 K, x1 = 0.26 | 93.32
231.25 K, x1 = 0.16 | 81.18
231.25 K, x1 = 0.26 | 88.06
231.73 K, x1 = 0.68 | 134.71
233.15 K, x1 = 0.19 | 82.84
234.29 K, x1 = 0.26 | 94.31
235.99 K, x1 = 0.16 | 82.54
235.99 K, x1 = 0.26 | 89.71
236.47 K, x1 = 0.68 | 135.85
237.88 K, x1 = 0.19 | 84.28
240.73 K, x1 = 0.16 | 83.89
240.73 K, x1 = 0.26 | 91.02
240.77 K, x1 = 0.19 | 89.19
240.93 K, x1 = 0.26 | 96.61
241.21 K, x1 = 0.68 | 137.55
242.63 K, x1 = 0.19 | 85.72
244.1 K, x1 = 0.19 | 90.63
244.25 K, x1 = 0.26 | 97.92
245.48 K, x1 = 0.16 | 85.52
245.48 K, x1 = 0.26 | 92.66
245.96 K, x1 = 0.68 | 138.69
247.38 K, x1 = 0.19 | 87.17
249.79 K, x1 = 0.16 | 90.14
250.23 K, x1 = 0.16 | 86.88
250.23 K, x1 = 0.26 | 94.31
250.71 K, x1 = 0.68 | 140.39
250.75 K, x1 = 0.19 | 93.23
250.9 K, x1 = 0.26 | 100.22
252.13 K, x1 = 0.19 | 88.61
253.11 K, x1 = 0.16 | 91.5
254.07 K, x1 = 0.19 | 94.09
254.23 K, x1 = 0.26 | 101.21
254.97 K, x1 = 0.16 | 88.24
254.98 K, x1 = 0.26 | 95.95
255.46 K, x1 = 0.68 | 142.1
256.88 K, x1 = 0.19 | 90.05
259.73 K, x1 = 0.16 | 89.32
259.73 K, x1 = 0.26 | 97.59
259.77 K, x1 = 0.16 | 93.94
260.2 K, x1 = 0.68 | 143.8
260.72 K, x1 = 0.19 | 96.4
260.88 K, x1 = 0.26 | 103.84
261.62 K, x1 = 0.19 | 91.5
263.1 K, x1 = 0.16 | 95.03
264.05 K, x1 = 0.19 | 97.56
264.21 K, x1 = 0.26 | 104.82
264.47 K, x1 = 0.16 | 90.68
264.48 K, x1 = 0.26 | 99.24
264.96 K, x1 = 0.68 | 146.08
266.1 K, x1 = 0.16 | 96.11
266.1 K, x1 = 0.19 | 98.13
266.1 K, x1 = 0.26 | 105.48
266.38 K, x1 = 0.19 | 92.94
269.23 K, x1 = 0.16 | 91.77
269.23 K, x1 = 0.26 | 100.55
269.72 K, x1 = 0.68 | 147.21
269.76 K, x1 = 0.16 | 97.2
269.76 K, x1 = 0.68 | 158.01
270.7 K, x1 = 0.19 | 99.29
270.87 K, x1 = 0.26 | 106.79
271.14 K, x1 = 0.19 | 94.38
273.09 K, x1 = 0.16 | 98.01
273.1 K, x1 = 0.68 | 156.88
274.02 K, x1 = 0.16 | 92.85
274.02 K, x1 = 0.26 | 102.19
274.07 K, x1 = 0.19 | 100.16
274.24 K, x1 = 0.26 | 107.45
274.52 K, x1 = 0.68 | 149.49
278.94 K, x1 = 0.16 | 94.21
278.94 K, x1 = 0.19 | 96.4
278.94 K, x1 = 0.26 | 103.51
279.44 K, x1 = 0.68 | 151.19
279.97 K, x1 = 0.16 | 99.1
279.98 K, x1 = 0.68 | 157.45
280.95 K, x1 = 0.19 | 101.02
281.12 K, x1 = 0.26 | 108.77
283.41 K, x1 = 0.16 | 98.83
283.42 K, x1 = 0.68 | 156.88
283.84 K, x1 = 0.16 | 94.75
283.85 K, x1 = 0.19 | 97.27
283.85 K, x1 = 0.26 | 104.82
284.35 K, x1 = 0.68 | 151.76
284.4 K, x1 = 0.19 | 101.02
284.56 K, x1 = 0.26 | 108.77
